# Source: ChEMBL document CHEMBL6109091, “Integrated computational and biosensor-based strategies for the discovery of allosteric SMYD3 ligands using diperodon as a starting point” (Bioorg Med Chem, 2025)
# Target: T1, Histone-lysine N-methyltransferase SMYD3 (Homo sapiens, UniProt Q9H7B4)
# T1 sequence (Q9H7B4 whole entry): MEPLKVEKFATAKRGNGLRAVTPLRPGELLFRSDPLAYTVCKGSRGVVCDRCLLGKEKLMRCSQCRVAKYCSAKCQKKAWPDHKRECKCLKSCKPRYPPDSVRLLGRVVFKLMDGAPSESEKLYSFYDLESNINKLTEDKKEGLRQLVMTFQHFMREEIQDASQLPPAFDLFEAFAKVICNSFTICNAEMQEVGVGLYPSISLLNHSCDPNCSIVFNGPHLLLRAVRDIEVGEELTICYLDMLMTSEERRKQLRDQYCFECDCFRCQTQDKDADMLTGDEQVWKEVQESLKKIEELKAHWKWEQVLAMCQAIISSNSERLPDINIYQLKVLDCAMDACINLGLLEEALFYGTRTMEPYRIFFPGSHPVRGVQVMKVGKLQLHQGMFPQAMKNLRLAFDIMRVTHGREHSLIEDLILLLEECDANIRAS
# Assay: Binding affinity to SMYD3 (unknown origin) assessed as dissociation constant by GCI biosensor based analysis
row,Kd [µM],Compound
1,~0.4,Cc1cccc(C)c1NC(=O)CN1CCCC1c1ccccc1 (stereo unspecified)
2,~210,Cc1cc(NC(=O)CCCNC(=O)c2ccsc2)no1
3,~130,Cc1ccsc1C(Cc1ccccc1)NC(=O)Cn1cncn1 (stereo unspecified)

# Further lines, the compound ahead of its results:
row,Compound,Kd [µM]
1,Cc1cc(N2CCC(NC(C)c3sccc3C)C2=O)n(C)n1 (stereo unspecified),~3
2,CCC(C(=O)NC1CCCC1)N(C)Cc1ncc(C)[nH]1 (stereo unspecified),~180
3,O=CNc1ccccc1 [FORMANILIDE],~80
